Test: Glutathione exchange experiment (stability towards competing sulfhydryl groups, RP-HPLC)
Format: physicochemical
Settings: 0.1 M sodium phosphate buffer pH 7, 10 equiv of glutathione, 37° C., 96 hours
Procedure: This example provides a stability experiment of the compound of the invention towards competing sulfhydryl groups.
Compound 4aa was incubated in a 0.1 M sodium phosphate buffer at pH 7 with 10 equiv of glutathione, incubated at 37° C. and shaken for 96 hours. The stability was checked using RP-HPLC [Phenomenex Luna C18 column using a flow rate of 1 mL/min; H2O method: 3 minutes column flushing with 100% H2O, then a gradient from 0 to 100% ACN in 20 minutes, followed by 5 minutes of flushing with 100% ACN]. […] Representative HPLC chromatogram is shown (FIG. 7).

| GSH exchange reaction | stability of conjugated compound in presence of glutathione | Molecule |
| --- | --- | --- |
| no GSH exchange reaction takes place |  | 1-benzyl-5-hydroxy-4-((2-hydroxyethyl)thio)-5-methylpyrrolidin-2-one [Compound 4aa] |
|  | stable | CC1(O)C(SCCO)CC(=O)N1Cc1ccccc1 (centres unmarked) [4′aa, 1-benzyl-5-hydroxy-4-((2-hydroxyethyl)thio)-5-methylpyrrolidin-2-one] |

Reference: patent publication US12479799B2, “Bioconjugation reagent and methods” (Universiteit Gent, priority 2019, dated 2025)
